According to ChEMBL document CHEMBL1135829, “Investigations on estrogen receptor binding. The estrogenic, antiestrogenic, and cytotoxic properties of C2-alkyl-substituted 1,1-bis(4-hydroxyphenyl)-2-phenylethenes” (J Med Chem, 2002):

How the values were obtained:
[1] = test system: MCF-7 (Homo sapiens); experiment: Antitumor activity against MCF-7 cells at 5 uM.
[2] = target: T1, Estrogen receptor (Homo sapiens, UniProt P03372); experiment: Antiestrogenic activity in MCF-7-2a cells as concentration required to reduce estradiol effect by 50%; type: functional, cell-based
T1 sequence (P03372 whole entry): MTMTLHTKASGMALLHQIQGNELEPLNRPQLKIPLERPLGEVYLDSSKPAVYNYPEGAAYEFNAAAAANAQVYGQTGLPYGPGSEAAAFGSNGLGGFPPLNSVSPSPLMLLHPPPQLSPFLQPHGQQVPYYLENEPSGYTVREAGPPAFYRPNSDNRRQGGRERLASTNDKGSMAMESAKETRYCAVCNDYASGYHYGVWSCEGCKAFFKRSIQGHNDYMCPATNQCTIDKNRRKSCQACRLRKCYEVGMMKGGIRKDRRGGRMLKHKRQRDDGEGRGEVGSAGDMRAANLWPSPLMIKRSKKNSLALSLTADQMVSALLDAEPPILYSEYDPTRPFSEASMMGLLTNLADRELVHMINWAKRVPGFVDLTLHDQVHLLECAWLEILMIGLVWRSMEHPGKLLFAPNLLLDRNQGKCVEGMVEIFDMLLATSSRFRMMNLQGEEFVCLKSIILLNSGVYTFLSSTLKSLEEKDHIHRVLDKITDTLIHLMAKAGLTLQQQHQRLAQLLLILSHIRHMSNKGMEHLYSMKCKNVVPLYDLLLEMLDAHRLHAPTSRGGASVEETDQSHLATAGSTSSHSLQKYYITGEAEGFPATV

[3] = test system: MCF-7 (Homo sapiens); experiment: Cytotoxicity against MCF-7 cells at 5 uM.

Question: What does the source list for Oc1ccc(C(=Cc2ccccc2)c2ccc(O)cc2)cc1?
Answer: Cytotoxicity [1]: 92%; IC50 [2]: 150 nM

Question: For CC(=C(c1ccc(O)cc1)c1ccc(O)cc1)c1ccccc1, which Cytotoxicity [3] is on record?
Answer: 90%

Question: And the IC50 [2]?
Answer: 30 nM

Question: For CC/C(=C(\c1ccccc1)c1ccc(OCCN(C)C)cc1)c1ccccc1 [TAMOXIFEN], which Cytotoxicity [1] is on record?
Answer: 15%

Question: For CCC(=C(c1ccc(O)cc1)c1ccc(O)cc1)c1ccccc1, which Cytotoxicity [3] is on record?
Answer: 99%

Question: What about the IC50 [2] of the same compound?
Answer: 15 nM

Question: Which Cytotoxicity [3] does the source give for CCCC(=C(c1ccc(O)cc1)c1ccc(O)cc1)c1ccccc1 here?
Answer: 98%

Question: What about the IC50 [2] of the same compound?
Answer: 50 nM

Question: What does the source list for Oc1ccc(C(=C(CC(F)(F)F)c2ccccc2)c2ccc(O)cc2)cc1?
Answer: Cytotoxicity [3]: 68%; IC50 [2]: 9 nM

Question: How did the Cytotoxicity [1] turn out when CC/C(=C(\c1ccccc1)c1ccc(O)cc1)c1ccccc1 was run?
Answer: 25%

Question: What about the IC50 [2] of the same compound?
Answer: 7 nM

Question: With CCCCC(=C(c1ccc(O)cc1)c1ccc(O)cc1)c1ccccc1 as the compound, how does the Cytotoxicity [1] read?
Answer: 87%

Question: And the IC50 [2]?
Answer: 500 nM
